Tests used:
[1] = tested on: CD31-positive vessel in the FaDu subcutaneous model; experiment: Effect on CD31-positive vessel in the FaDu subcutaneous model in mice (Test Example 9); type: in vivo; details: five days after administration
Procedure: A human squamous cell carcinoma of the head and neck (SCCHN) cell line FaDu, which had been cultured in an RPMI-1640 medium containing 10% FBS, and penicillin and streptomycin, was adjusted to a concentration of 5×10^7 cells/mL with PBS to prepare a cell suspension. The cell suspension was inoculated in a volume of 100 μL into a subcutaneous part of a right flank of nude mice, 7 weeks of ages (CAnN.Cg-Foxnlnu/CrlCrlj, female, Charles River Laboratories Japan, Inc.). Ten days after cell inoculation, a test compound in saline with 100 μM of hydroxypropyl-β-cyclodextrin was intravenously administered at doses from ½ MTD to MTD. The experiment was conducted on groups each consisting of 3 mice. Five days after administration, tumor samples were collected and fixed with IHC Zinc Fixative (BD Pharmingen) at 4° C. for 24 hr. Paraffin-embedded tissues were sectioned (3 μm), mounted on positively charged slides, and air-dried. Immunohistochemical staining of CD31 was conducted using Ventana autostainer model Discover XT (Roche Diagnostics) according to the manufacture's protocol. Sections were deparaffinized, conditioned and the antigens were retrieved with CC1 (Ventana Medical Systems). Slides were blocked with Blocker A and Blocker B (Endogenous biotin blocking kit, Roche Diagnostics). Rat anti-mouse IgG CD31 antibody (Dianova GmbH) was applied at 2 μg/mL. […]
Immunostained slides were scanned using Vectra 2 Automated Slide Imaging System (Perkin Elmer Inc.). The number of blood vessels in the whole tumor was quantified by counting the CD31-positive objects using inForm 2 software (PerkinElmer Inc.) Area of the tumor region was measured by assessing the hematoxylin-staining area using inform 2 software (PerkinElmer Inc.) The number of blood vessels was normalized by the area of the tumor region. An increase rate of the blood vessel number of the test compound-dosing group was calculated with the below formula, and shown in Table 9. […]

[2] = tested on: human small bowel cancer cell line HuTu 80; experiment: HuTu 80 growth inhibition assay; type: cell-based; details: 3 days incubation, CellTiter-Glo
Procedure: In this assay, the growth inhibitory activities of test compounds in the human small bowel cancer cell line HuTu 80, which was isolated from duodenal tissue were measured. HuTu 80 cells were maintained in EMEM medium containing 10% FBS, penicillin and streptomycin in a 5% CO2 incubator (37° C.). To each well of a 96-well plate (Becton, Dickinson and Company, 353219), 100 μL of a HuTu80 cell suspension adjusted to a concentration of 3×10^4 cells/mL with the culture medium was added, and the cells were incubated overnight in a 5% CO2 incubator (37° C.). On the next day, 100 μL of Compound (1) or Halichondrin B in three-fold dilution series suspended in the culture medium was added to each well, and the resultant was incubated for 3 days in a 5% CO2 incubator (37° C.). Then, cell viability was determined by CellTiter-Glo® Luminescent Cell Viability Assay (Promega) with EnVision 2103 Multilabel Reader (Perkin-Elmer, Wellesley, Mass.). Value of the wells containing cells without adding the test compounds was defined as 100% and the value of the wells containing no cells was defined as 0%. The concentrations of the test compounds necessary for inhibiting the cell growth by 50% (i.e., an IC50 value) were calculated and are shown in Table 15.

[3] = tested on: FaDu subcutaneous xenograft; experiment: Antitumor effects in FaDu subcutaneous xenograft model in combination with cetuximab in mice; type: in vivo
Procedure: A human squamous cell carcinoma of the head and neck (SCCHN) cell line FaDu, which had been cultured in an RPMI-1640 medium containing 10% FBS, and penicillin and streptomycin, was adjusted to a concentration of 5×10^7 cells/mL with Hanks' Balanced Salt Solution to prepare a cell suspension. The cell suspension was inoculated in a volume of 100 μL into a subcutaneous part of a right flank of nude mice, 7 weeks of ages (CAnN.Cg-Foxnlnu/CrlCrlj, female, Charles River Laboratories Japan Inc.).
On the basis of the volumes of tumors obtained on the first day of administration, the mice were grouped such that averages of the tumor volumes were substantially equal among the groups. Each test compound was dissolved in DMSO and a solution was stored at the freezer before use. Immediately before the administration, the stock solution was diluted in saline with 100 μM of hydroxypropyl-β-cyclodextrin. […] Incidentally, the experiment was conducted on groups each consisting of 4 mice.

[4] = tested on: human synovial sarcoma cell line HS-SY-II; experiment: HS-SY-II growth inhibition assay; type: cell-based; details: 3 days incubation, CellTiter-Glo
Procedure: In this assay, the growth inhibitory activities of test compounds in the human synovial sarcoma cell line HS-SY-II were measured. […] cells were maintained in a DMEM medium containing 10% FBS, penicillin, and streptomycin in a 5% CO2 incubator (37° C.). To each well of a 96-well plate (Becton, Dickinson and Company, 353219), 100 μL of a HS-SY-II cell suspension adjusted to a concentration of 3×10^4 cells/mL with the culture medium was added, and the cells were incubated overnight in a 5% CO2 incubator (37° C.). On the next day, 100 μL of Compound (1) or Halichondrin B in three-fold dilution series suspended in the culture medium was added to each well, and the resultant was incubated for 3 days in a 5% CO2 incubator (37° C.). Then, cell viability was determined by CellTiter-Glo® Luminescent Cell Viability Assay (Promega) with EnVision 2103 Multilabel Reader (Perkin-Elmer, Wellesley, Mass.). Value of the wells containing cells without adding the test compounds was defined as 100% and the value of the wells containing no cells was defined as 0%. The concentrations of the test compounds necessary for inhibiting the cell growth by 50% (i.e., an IC50 value) were calculated, and are shown in Table 17.

C=C1C[C@@H]2CC[C@@]34C[C@H]5O[C@H]6[C@@H](O3)[C@H]3O[C@H](CC[C@@H]3O[C@H]6C5O4)CC(=O)O[C@@H]3[C@@H](C)[C@@H]4O[C@@H]5C[C@]6(C[C@@H]7O[C@]8(C[C@H](C)[C@@H]9O[C@H](CN)[C@H](O)C[C@@H]9O8)C[C@H](C)[C@@H]7O6)O[C@@H]5C[C@@H]4O[C@H]3C[C@H]3O[C@@H](CC[C@@H]1O2)C[C@@H](C)C3=C [Compound (1)]
Increase rate of blood vessel number (%) ([1]; 0.10 mg/kg intravenously): 69%
IC50 [2]: 0.019 nM
Tumor Regression on day 35 (%) ([3]; 0.05 mg/kg intravenously + cetuximab 20 mg/kg): 38%
Tumor Regression on day 35 (%) ([3]; 0.1 mg/kg intravenously + cetuximab 20 mg/kg): 60%
IC50 [4]: 0.002 nM

C=C1C[C@@H]2CC[C@@]34C[C@H]5O[C@H]6[C@@H](O3)[C@H]3O[C@H](CC[C@@H]3O[C@H]6[C@H]5O4)CC(=O)O[C@@H]3[C@@H](C)[C@@H]4O[C@@H]5C[C@]6(C[C@@H]7O[C@]8(C[C@H](C)[C@@H]9O[C@H]([C@@H](O)C[C@@H](O)CO)C[C@@H]9O8)C[C@H](C)[C@@H]7O6)O[C@@H]5C[C@@H]4O[C@H]3C[C@H]3O[C@@H](CC[C@@H]1O2)C[C@@H](C)C3=C [Halichondrin B, reference compound]
Increase rate of blood vessel number (%) ([1]; 0.025 mg/kg intravenously): 31%
Increase rate of blood vessel number (%) ([1]; 0.05 mg/kg intravenously): 39%
IC50 [2]: 0.031 nM
Tumor Regression on day 35 (%) ([3]; 0.0125 mg/kg intravenously + cetuximab 20 mg/kg): −38%
Tumor Regression on day 35 (%) ([3]; 0.025 mg/kg intravenously + cetuximab 20 mg/kg): −2%
IC50 [4]: 0.01 nM

Source: patent publication US11725015B2, “Macrocyclic compound and uses thereof” (President and Fellows of Harvard College, priority 2017, dated 2023)
